In article PMC9528225 (Molecular Immunology, 2012) one finds IC50 data, which are given here for one molecule.

In the test the target is HLA-DR15 (DRB1*1501) (Homo sapiens, UniProt P01903+P01911). The experiment in a line: biochemical. In kind it is binding.

As a reminder, the IC50 is the midpoint of a concentration-inhibition curve. High values mean weaker potency, low ones greater potency. Consider `CC(C)C[C@H](NC(=O)[C@H](Cc1ccc(O)cc1)NC(=O)[C@H](C)NC(=O)[C@H](CCCNC(=N)N)NC(=O)[C@H](CC(C)C)NC(=O)[C@H](CCC(N)=O)NC(=O)[C@H](CCC(=O)O)NC(=O)[C@H](C)NC(=O)[C@@H](N)CCC(=O)O)C(=O)N[C@@H](CC(=O)O)C(=O)NCC(=O)N[C@H](C(=O)NCC(=O)N[C@H](C(=O)N[C@@H](CCC(=O)O)C(=O)O)C(C)C)[C@@H](C)O` [A3 152–166], for which the IC50 worked out at 18 nM.
